# Measurements from US20200385396A1, “Compond for treatment or prevention of obesity or diseases related to obesity, and application thereof” (SHANGHAI INSTITUTES FOR BIOLOGICAL SCIENCES, CHINESE …, priority 2017, published 2020).
# Target: T1, NUCB2 protein (Mus musculus, UniProt P81117)
# T1 construct: Immediately the mouse full-length NUCB2 protein expressed in E. coli was purified; His tag (inferred from pET-28A vector, Ni-NTA purification and His antibody); made in house; host or cells: E. coli BL21-CodonPlus (DE3)
# T1 sequence (P81117 25-420): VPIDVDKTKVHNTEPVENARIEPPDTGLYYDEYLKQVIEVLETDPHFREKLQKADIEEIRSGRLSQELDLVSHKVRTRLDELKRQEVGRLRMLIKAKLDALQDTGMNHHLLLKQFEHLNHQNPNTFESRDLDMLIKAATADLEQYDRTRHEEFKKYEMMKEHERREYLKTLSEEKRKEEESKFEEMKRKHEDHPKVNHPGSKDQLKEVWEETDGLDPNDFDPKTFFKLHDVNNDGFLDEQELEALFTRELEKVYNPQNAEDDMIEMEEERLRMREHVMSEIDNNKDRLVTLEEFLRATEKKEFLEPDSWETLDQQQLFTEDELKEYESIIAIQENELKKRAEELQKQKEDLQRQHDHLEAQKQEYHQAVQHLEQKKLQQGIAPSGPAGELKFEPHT
# Test: Competitive binding experiment: small molecules compete with Bio78 (HLY179) for NUCB2
# Details: competitor final concentration 100 μM; HLY179 20 μM
# Protocol: When doing the combining experiments, (1) pre-treating Streptavidin-Agarose, washing Streptavidin-Agarose Beads with IP buffer, and spinning it on the rotor for 10 minutes. (2) Re-binding small molecules HLY179 (20 μM) and Streptavidin-Agarose Beads, spinning it in a refrigeration house at 4° C. for 1-2 hours. (3) When the previous step was performed for about 1 hour, the protein was pre-cleared at the same time, and the protein and the washed Streptavidin-Agarose were rotated in a refrigeration house at 4° C. for 30 minutes. (4) the Streptavidin-Agarose Beads binded with HLY179 was centrifuged, the supernatant was removed, washed again with 600 μL of IP buffer (rotated at 4° C. for 3 minutes), centrifuged, and the supernatant was removed carefully. (5) the pre-cleard protein was added and rotated in a refrigeration house at 4° C. for 2 hours. Washd twice with IP buffer 800 μL, 2 minutes each time (all rotated in a refrigeration house at 4° C.). After the last wash, the supernatant was removed, 40 μL of 2*loading was added and cooked for 10 minutes, stored at −20° C. When doing competitive binding experiments, in the third step while pre-treating the protein adding different small molecule compounds, the final concentration was 100 μM, and the rest was the same. Western Blot: Preparing the appropriate concentration of SDS-PAGE gel, adding protein sample for electrophoretic separation. […]
compound,measurement,value
C=Cc1cccc2c1N(C)Cc1cc3c(cc1-2)OCO3 [HLY72],compete with Bio78 for binding to NUCB2,can also compete
